Experimental findings from BindingDB's records for doi:10.1016/j.bmcl.2008.12.075 (Methylgene, 2009) are described below.

Broadly, the IC50 is the concentration at which inhibition is half-maximal.

The target in the test is T1, Histone-arginine methyltransferase CARM1 (Mus musculus, UniProt Q9WVG6).
T1 sequence (Q9WVG6 whole entry): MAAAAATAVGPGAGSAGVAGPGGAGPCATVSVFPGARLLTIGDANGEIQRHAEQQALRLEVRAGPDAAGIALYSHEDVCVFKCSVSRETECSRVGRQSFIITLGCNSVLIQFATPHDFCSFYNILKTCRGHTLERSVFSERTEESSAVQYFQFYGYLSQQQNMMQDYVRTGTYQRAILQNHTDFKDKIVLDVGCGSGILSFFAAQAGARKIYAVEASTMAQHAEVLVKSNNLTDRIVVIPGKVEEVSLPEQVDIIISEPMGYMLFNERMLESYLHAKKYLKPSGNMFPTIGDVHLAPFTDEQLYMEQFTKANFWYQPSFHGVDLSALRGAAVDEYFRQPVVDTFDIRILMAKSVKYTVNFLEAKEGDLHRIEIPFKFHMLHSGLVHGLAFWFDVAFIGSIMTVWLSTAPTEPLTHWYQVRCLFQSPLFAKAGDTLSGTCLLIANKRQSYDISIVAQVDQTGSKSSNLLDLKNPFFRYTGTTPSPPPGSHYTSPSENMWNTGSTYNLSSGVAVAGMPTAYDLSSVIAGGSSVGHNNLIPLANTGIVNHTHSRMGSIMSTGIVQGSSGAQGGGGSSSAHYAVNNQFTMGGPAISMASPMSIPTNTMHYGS
Nature of the test: Inhibition of CARM-1 Enzymatic Activity. To be noted: pH 9; 22 °C. As to the method: Histone H3 is used as the substrate for CARM-1 enzyme, and the methylation is monitored using tritiated S-Adenosyl-Methionine (SAM) as a methyl donor. The enzyme mixture containing test compound is left to pre-incubate for 10 minutes, followed by the addition of Histone H3/[3H] SAM mixture. After incubation, the mixture is spotted onto P30 Filtermat paper. The incorporated radioactivity is read using a Wallac Microbeta counter. The data is analyzed to generate IC50 values.
The molecule `C[C@H](N)C(=O)NCc1cccc(-n2nc(C(F)(F)F)cc2C(=O)NCc2ccccc2)c1` returned an IC50 of 0.08 µM. This counts as double-digit nanomolar. In the case of `COc1ccccc1CNC(=O)c1cc(C(F)(F)F)nn1-c1cccc2c1CN(C(=O)[C@H](C)N)C2` [1-{2-[(2S)-2-aminopropanoyl]-2,3-dihydro-1H-isoindol-4-yl}-N-[(2-methoxyphenyl)methyl]-3-(trifluoromethyl)-1H-pyrazole-5-carboxamide] it was more than 10 µM; in that of `C[C@H](N)C(=O)NCc1cc(-n2nc(C(F)(F)F)cc2C(=O)NCc2ccccn2)cs1` [1-(5-{[(2S)-2-aminopropanamido]methyl}thiophen-3-yl)-N-(pyridin-2-ylmethyl)-3-(trifluoromethyl)-1H-pyrazole-5-carboxamide], 3.35 µM.
